Data from US12139458B2, “(2,5-dioxopyrrolidin-1-yl)(phenyl)-acetamide derivatives and their use in the treatment of neurological diseases” (UNIWERSYTET JAGIELLONSKI, priority 2019, dated 2024).
Structures can show the parent of a compound that is named as a salt.

Key:
[1] = tested on: male Swiss albino mice (CD-1); test: Maximal electroshock seizure test (MES); assay type: in vivo; conditions: screening, 100 mg/kg i.p., 0.5 h, mice; for responders at 100 mg/kg: Mus musculus, ip, read-out: MES: number of mice protected/number of mice tested (converted)
Protocol: (§1) The male Swiss albino mice (CD-1) weighing 18-26 g were used. All procedures were carried out in accordance with applicable Polish and international guidelines on the ethics of animal testing, after obtaining appropriate institutional approval. The substances were administered intraperitoneally (i.p.), in 1% aqueous solution of Tween, as single injections with a volume of 10 ml/kg, 30 minutes before the given test. Screening was performed on groups consisted of 4 mice. The average effective dose (ED50) in given test and toxic dose in the rotarod test (TD50) was estimated based on the results obtained in 3-4 groups of animals consisting of 6 mice. All tests were carried out based on the procedures described in the specialist literature.
In the MES test, the seizures were induced by an electrical stimulus lasting of 0.2 s duration, 500 V voltage and 25 mA intensity. The electrical stimuli was generated using an electric shock generator (Rodent shocker, Type 221, Hugo Sachs Elektronik, Germany) and delivered to the animal using electrodes placed on the auricles. The study was conducted 30 minutes after intraperitoneal administration of the compounds at various doses. During the experiment, the number of animals that experienced a seizure episode in the form of tonic extension of the hind limbs was counted (Kamiński, K.; Rapacz, A.; Łuszczki, J. J.; Latacz, G.; Obniska, J.; Kieć-Kononowicz, K.; Filipek, B. Bioorg. Med. Chem. 2015, 23, 2548-2561; Castel-Branco, M. M.; Alves, G. L.; Figueiredo, I. V.; Falcão, A. C.; Caramona, M. M. Methods Find. Exp. Clin. Pharmacol. 2009, 31, 101-106).
(§2) To perform a statistical evaluation of the results, one-way ANOVA variance analysis and Dunnett's post hoc test (multiple comparison test) were used. The value at the significance level p<0.05 was considered statistically significant.

[2] = tested on: male Swiss albino mice (CD-1); test: Psychomotor seizure test 6 Hz (32 mA); assay type: in vivo; conditions: screening, 100 mg/kg i.p., 0.5 h, mice; for responders at 100 mg/kg: Mus musculus, ip, read-out: 6 Hz (32 mA): number of mice protected/number of mice tested (converted)
Protocol: as §1
In the 6 Hz test, seizures were induced by an electric stimulus of 32 mA and/or 44 mA and a frequency of 6 pulses per second. An electrical pulse was generated using an electric shock generator (ECT Unit 57800; Ugo Basile, Gemonio, Italy) and delivered to the animal using ocular electrodes. Before starting the test, the eye surface was gently moistened with a solution of local anesthetic (1% lidocaine solution). The study was conducted 30 minutes after intraperitoneal administration of the compounds at various doses. An electrical pulse was delivered continuously for a period of 3 seconds, followed by observation of the animal for a period of 10 seconds. During this time, immobility or stun associated with rearing, forelimb clonus, twitching of the vibrissae and Straub's tail were observed. These symptoms persist throughout the observation period, indicating the occurrence of psychomotor seizures in mice. Mice resuming normal behavior within 10 s after stimulation were considered as protected (Barton, M. E.; Klein, B. D.; Wolf, H. H.; White, H. S. Epilepsy Res. 2001, 47, 217-227; Wojda, E.; Wlaź, A.; Patsalos, P. N.; Łuszczki, J. J. Epilepsy Res. 2009, 86, 163-174).
as §2

[3] = tested on: male Swiss albino mice (CD-1); test: Subcutaneous pentylenetetrazole seizure test (scPTZ); assay type: in vivo; conditions: screening, 100 mg/kg i.p., 0.5 h, mice; for responders at 100 mg/kg: Mus musculus, ip, read-out: scPTZ: number of mice protected/number of mice tested (converted)
Protocol: as §1
In the scPTZ test, seizures were induced by subcutaneous administration of pentylenetetrazole (PTZ) at a dose of 100 mg/kg. This caused clonic seizures with accompanying loss of the righting reflex. Test compounds were administered 30 minutes before the experiment. After PTZ administration, the animals were placed individually in transparent containers and observed for a period of 30 minutes for the occurrence of clonic seizures. During this time, the latency of the first onset of clonic seizures, defined as clonus of the whole body lasting at least 3 seconds with loss of the righting reflex and the number of seizure episodes during the test were noted and compared with control group. The absence of clonic convulsions within the observed time period was interpreted as the compound's ability to protect against PTZ-induced seizures (Ferreri, G.; Chimirri, A.; Russo, E.; Gitto, R.; Gareri, P.; De Sarro, A.; De Sarro, G. Pharmacol. Biochem. Behav. 2004, 77, 85-94; Łączkowski, K.; Sałat, K.; Misiura, K.; Podkowa, A.; Malikowska, N. J. Enzyme Inhib. Med. Chem. 2016, 31, 1576-82).
as §2

melting point [°C]	Compound	MES: number of mice protected/number of mice tested [1]	6 Hz (32 mA): number of mice protected/number of mice tested [2]	scPTZ: number of mice protected/number of mice tested [3]	responders at 100 mg/kg [1] [%]	responders at 100 mg/kg [3] [%]	responders at 100 mg/kg [2] [%]
173.2 to 174.3	O=C(C(c1ccccc1)N1C(=O)CCC1=O)N1CCN(c2ccc(C(F)(F)F)cc2)CC1 (racemic) [Compound 7, 1-(2-Oxo-1-phenyl-2-(4-(4-(trifluoromethyl)phenyl)piperazin-1-yl)ethyl)pyrrolidine-2,5-dione]	¾	¾	¾	–	–	–
228.1 to 229.4	O=C(C(c1ccccc1)N1C(=O)CCC1=O)N1CCN(c2cc(C(F)(F)F)cc(C(F)(F)F)c2)CC1 (racemic) [Compound 8, 1-(2-(4-(3,5-Bis(trifluoromethyl)phenyl)piperazin-1-yl)-2-oxo-1-phenylethyl)pyrrolidine-2,5-dione]	–	¾	–	100	100	–
102.3 to 103.5	O=C(C(c1ccccc1)N1C(=O)CCC1=O)N1CCN(c2ccc(OC(F)(F)F)cc2)CC1 (racemic) [Compound 11, 1-(2-Oxo-1-phenyl-2-(4-(4-(trifluoromethoxy)phenyl)piperazin-1-yl)ethyl)pyrrolidine-2,5-dione]	¾	¾	–	–	50	–
197.1 to 198.5	O=C(C(c1ccccc1)N1C(=O)CCC1=O)N1CCN(c2ccc3ccccc3c2)CC1 (racemic) [Compound 15, 1-(2-(4-(Naphth-2-yl)piperazin-1-yl)-2-oxo-1-phenylethyl)pyrrolidine-2,5-dione]	–	¾	¾	50	–	–
164.1 to 165.3	O=C(C(c1ccccc1)N1C(=O)CCC1=O)N1CCN(c2ccc3sccc3c2)CC1 (racemic) [Compound 16, 1-(2-(4-(Benzo[b]thiophen-5-yl)piperazin-1-yl)-2-oxo-1-phenylethyl)pyrrolidine-2,5-dione]	¾	¾	¾	–	–	–
174.3 to 175.5	O=C([C@@H](c1ccccc1)N1C(=O)CCC1=O)N1CCN(c2cc(Cl)cc(Cl)c2)CC1 [(R)-4, (R)-1-(2-(4-(3,5-dichlorophenyl)piperazin-1-yl)-2-oxo-1-phenylethyl)pyrrolidine-2,5-dione]	–	–	–	100	50	100

The remaining lines, values behind:

Compound	melting point [°C]	MES: number of mice protected/number of mice tested [1]	6 Hz (32 mA): number of mice protected/number of mice tested [2]	scPTZ: number of mice protected/number of mice tested [3]	responders at 100 mg/kg [1] [%]	responders at 100 mg/kg [3] [%]	responders at 100 mg/kg [2] [%]
O=C(C(Cc1ccccc1)N1C(=O)CCC1=O)N1CCN(c2cccc(C(F)(F)F)c2)CC1 (stereo not shown) (as salt: salt) [Example 23, 1-(1-Oxo-3-phenyl-1-(4-(3-(trifluoromethyl)phenyl)piperazin-1-yl)propan-2-yl)pyrrolidine-2,5-dione]	126.1 to 127.2	–	–	–	–	–	–
O=C(C(c1ccccc1)N1C(=O)CCC1=O)N1CCC(c2cccc(Cl)c2)CC1 (racemic) [Compound 18, 1-(2-(4-(3-Chlorophenyl)piperidin-1-yl)-2-oxo-1-phenylethyl)pyrrolidine-2,5-dione]	111.8 to 113.4	¾	¾	¾	–	–	–
O=C(C(c1ccccc1)N1C(=O)CCC1=O)N1CCC(c2cccc(OC(F)(F)F)c2)CC1 (racemic) [Compound 20, 1-(2-Oxo-1-phenyl-2-(4-(3-(trifluoromethoxy)phenyl)piperidin-1-yl)ethyl)pyrrolidine-2,5-dione]	112.1 to 113.2	–	¾	–	100	50	–
O=C([C@@H](c1ccccc1)N1C(=O)CCC1=O)N1CCN(c2cccc(SC(F)(F)F)c2)CC1 [(R)-12]	–	4/4	4/4	¼	–	–	–
O=C(C(c1ccccc1)N1C(=O)CCC1=O)N1CCN(c2ccc3oncc3c2)CC1 (stereo not shown) [Compound 17, 1-(2-(4-(1,2-Benzoxazol-5-il)piperazin-1-yl)-2-oxo-1-phenylethyl)pyrrolidine-2,5-dione]	–	¾	¾	¾	–	–	–
O=C(C(Cc1ccccc1)N1C(=O)CCC1=O)N1CCN(c2ccccc2)CC1 (stereo not shown) [Compound 21, 1-(1-Oxo-3-phenyl-1-(4-phenylpiperazin-1-yl)prop-2-yl)pyrrolidine-2,5-dione]	121.7 to 123.2	–	–	–	–	–	–
O=C(C(Cc1ccccc1)N1C(=O)CCC1=O)N1CCN(c2cccc(Cl)c2)CC1 (stereo not shown) [Compound 22, 1-(1-(4-(3-Chlorophenyl)piperazin-1-yl)-1-oxo-3-phenylpropan-2-yl)pyrrolidine-2,5-dione]	114.3 to 116.2	–	–	–	–	–	–
O=C(C(Cc1ccccc1)N1C(=O)CCC1=O)N1CCN(c2cccc(-c3ccccc3)c2)CC1 (stereo not shown) [Compound 24, 1-(1-(4-([1,1′-Biphenyl]-3-yl)piperazin-1-yl)-1-oxo-3-phenylpropan-2-yl)pyrrolidine-2,5-dione]	119.1 to 120	–	–	–	–	–	–
O=C(C(Cc1ccccc1)N1C(=O)CCC1=O)N1CCN(c2cccc(OC(F)(F)F)c2)CC1 (stereo not shown) [Compound 25, 1-(1-Oxo-3-phenyl-1-(4-(3-(trifluoromethoxy)phenyl)piperazin-1-yl)propan-2-yl)pyrrolidine-2,5-dione]	104.4 to 105.5	–	–	–	–	–	–
CNC1CC(=O)N(C(C(=O)N2CCN(c3cccc(C(F)(F)F)c3)CC2)c2ccccc2)C1=O.Cl (stereo not shown) [Compound 48, 3-(Methylamino)-1-(2-oxo-1-phenyl-2-(4-(3-(trifluoromethyl)phenyl)piperazin-1-yl)ethyl)pyrrolidine-2,5-dione hydrochloride]	161.2 to 163.4	–	–	¾	100	–	100
CN(C)C1CC(=O)N(C(C(=O)N2CCN(c3cccc(C(F)(F)F)c3)CC2)c2ccccc2)C1=O.Cl (stereo not shown) [Compound 49, 3-(Dimethylamino)-1-(2-oxo-1-phenyl-2-(4-(3-(trifluoromethyl)phenyl)-piperazin-1-yl)ethyl)pyrrolidine-2,5-dione hydrochloride]	157.8 to 159.2	–	–	¾	100	–	100
CCN(CC)C1CC(=O)N(C(C(=O)N2CCN(c3cccc(C(F)(F)F)c3)CC2)c2ccccc2)C1=O.Cl (stereo not shown) [Compound 50, 3-(Diethylamino)-1-(2-oxo-1-phenyl-2-(4-(3-(trifluoromethyl)phenyl)piperazin-1-yl)ethyl)pyrrolidine-2,5-dione hydrochloride]	142.2 to 143.1	–	–	–	100	50	100
